A short description of one series: in vitro. The note with it: human, plasma.
The test system of a further series is FXIIa. The note with it: cited from earlier work.
In series [1] the target is T1, human β-FXIIa (Homo sapiens, UniProt P00748).
T1 construct: human β-FXIIa, a naturally occurring proteolytic product of FXIIa comprising only the catalytic domain; purchased Molecular Innovations HFXIIAB
Kind of series: Protease inhibition assay (Example 3). The class given is biochemical. Conditions: for improvement of Ki / binding: relative to FXII618 (1). How it is done: The inhibitory activity of the synthesized bicyclic peptides was determined by incubation with the protease and quantification of the residual activity at various peptide concentrations using a fluorogenic substrate. A 2 mM (by weight) stock solution in H2O was made for each peptide. For the assay, serial dilutions were made from the peptide stock solution using aqueous buffer containing 10 mM TRIS, 150 mM NaCl, 10 mM MgCl (hexahydrate), 1 mM CaCl2 (dihydrate), 0.01% (v/v) Triton X-100, 0.1% (w/v) BSA and pH adjusted to 7.4. The final concentration of human 3-FXIIa (HFXIIAB; Molecular Innovations) was 1 nM or 0.5 nM. […] The final concentration of the fluorogenic substrate Boc-Q-G-R-AMC (Bachem) was 50 μM and the final DMSO content was 5%. The fluorescence was measured using an Infinite M200 Pro plate reader (Tecan) with filters 368 nm for excitation and 467 nm for emission. The measurement was performed for 60 min with a read every minute at 25° C. IC50 and Ki values were calculated using GraphPad Prism 5 software.

For series [2], the target named is T1, human β-FXIIa. Nature of the series: Protease inhibition assay (Example 2). The class given is biochemical. Conditions: for improvement of inhibitory activity / affinity: relative to parent peptide 2.
Description: The inhibitory activity of bicyclic peptides was determined by incubation with proteases and quantification of their residual activity with a fluorogenic substrate. Residual enzymatic activities were measured in buffer containing 10 mM Tris-CI, pH 7.4, 150 mM NaCl, 10 mM MgCl2, 1 mM CaCl2, 0.1% w/v BSA, 0.01% v/v Triton-X100, and 5% v/v DMSO in a volume of 150 μL. In a first series of experiments 50 μM of the fluorogenic substrate Z-Gly-Gly-Arg-AMC and 2.5 nM of enzyme (human p-FXIIa, HFXIIAB; Molecular Innovations) was used.
Dilutions of peptides were prepared ranging from 0.00001-4 μM. Fluorescence intensity was measured with an Infinite M200Pro fluorescence plate reader (excitation at 368 nm, emission at 467 nm; Tecan, Männedorf, Switzerland). The reactions were performed at 25° C., Sigmoidal curves were fitted to the data using the following dose response equation wherein x=peptide concentration, y=% activity of reaction without peptide, A1=100%, A2=0%, p=1. IC50 values were derived from the fitted curve.
Series [3] deals with intrinsic coagulation pathway. Nature of the series: aPTT in human plasma (Example 2). The class given is biochemical. How it is done:
Coagulation times (aPTT, PT) were determined in human plasma using a blood coagulation analyzer (STart. Hemostasis coagulation analyzer, Diagnostica Stago). Extrinsic coagulation was triggered with Innovin (recombinant human tissue factor, synthetic phospholipids and calcium in stabilized HEPES buffer system; Dade Behring; Siemens). Intrinsic coagulation was triggered with Pathromtin* SL (Siemens). Pooled normal human plasma used in this study was provided by Innovative research (USA).
The ability to selectively suppress the intrinsic coagulation pathway was assessed in in vitro coagulation assays. Activated partial thromboplastin time (aPTT) and prothrombin time (PT) measure the time to coagulation upon initiation of coagulation either via the intrinsic (aPTT) or the extrinsic pathway (PT). These tests have been performed in human plasma in the presence of different concentrations of FXIIa-inhibitors. Selective FXIIa inhibition is expected to increase aPTT but not PT. […] At a concentration of 5 μM peptide inhibitor no coagulation via the intrinsic pathway occurred within 120 s. Additionally, there was a correlation between inhibitory activity against FXIIa and extent of aPTT prolongation.

Each structure is given as a SMILES string. Starred links: 1 amine or outer side, 2 acyl side, 3 side chain; linkers in the order of their positions; H or OH if unused. Positions of bridges follow the written chain, without caps; N, C: chain ends. Non-standard residues stand in square brackets, D forms with d. Residues, ends and D or L forms follow the SMILES beside them. TATA = O=C(CC[*:1])N1CN(C(=O)CC[*:2])CN(C(=O)CC[*:3])C1; Phe(4-F) = N[C@@H](Cc1ccc(F)cc1)C(=O)O; β3hR = N=C(N)NCCC[C@H](N)CC(=O)O

T1 sequence (P00748 373-615 limits assumed, other chains not shown): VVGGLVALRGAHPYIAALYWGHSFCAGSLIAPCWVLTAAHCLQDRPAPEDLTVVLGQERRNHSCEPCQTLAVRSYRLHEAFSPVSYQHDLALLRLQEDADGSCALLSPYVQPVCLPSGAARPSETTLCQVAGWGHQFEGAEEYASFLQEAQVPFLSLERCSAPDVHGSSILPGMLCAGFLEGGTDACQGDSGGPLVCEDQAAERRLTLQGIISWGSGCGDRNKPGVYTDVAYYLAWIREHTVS
Description for in vitro: Peptide (2 μl of 2 mM in H2O) was added to 398 μl human plasma (final peptide concentration was 10 μM in 400 μl final volume). The mixture was incubated in the water bath at 37° C. At 8 different time points (0 h, 30 min, 1 h, 2 h, 4 h, 8 h, 12 h, 24 h and in some cases 48 h) a sample of 30 μl was removed, diluted to 200 μl with the same buffer used for protease inhibition assay (see above) and heat-inactivated for 20 min at 65° C. During this step proteases present in plasma are being inactivated, that would otherwise interfere with the subsequently performed enzymatic assay. […] Before analysis, plasma samples were centrifuged for 5 min at 16′000 g and the supernatant was collected. A twofold dilution series ranging from 0.0005-0.5 μM was prepared. IC50 values were derived from the fitted curve using the equation indicated above. Residual inhibition in % was calculated using the following formula: IC50, 0h/IC50, xh*100 wherein IC50, 0h is the functional strength of the inhibitor at time point 0 and IC50, xh the functional strength of inhibitor after one of the different plasma incubation period mentioned above.
The activity of the plasma proteases was heat-inactivated by incubation of the samples at 65° C. for 10 minutes.

For the compound `CC(C)C[C@@H]1NC(=O)[C@H](CCC(N)=O)NC(=O)[C@H](Cc2c[nH]cn2)NC(=O)[C@@H]2CSCCC(=O)N3CN(CN(C3)C(=O)CCSC[C@H](NC(=O)[C@@H](CO)NC(=O)[C@H](N)CCCNC(=N)N)C(=O)N[C@@H](Cc3ccc(F)cc3)C(=O)N[C@@H](CCCNC(=N)N)C(=O)N[C@@H](CC(C)C)C(=O)N3CCC[C@H]3C(=O)N2)C(=O)CCSC[C@@H](C(=O)N[C@@H](CCCNC(=N)N)C(N)=O)NC(=O)C[C@H](CCCNC(=N)N)NC1=O` [JS33] (H-[dR][dS]C[Phe(4-F)]RLPCHQL[β3hR]CR-NH2; linker 3-8-13 via TATA; N-terminus and C-terminus assumed), in “in vitro”, the half-life at 10 μM is 144 ± 30 h. The same measure, in the same setting: under `CC(C)C[C@@H]1NC(=O)[C@H](CCC(N)=O)NC(=O)[C@H](Cc2c[nH]cn2)NC(=O)[C@@H]2CSCCC(=O)N3CN(CN(C3)C(=O)CCSC[C@H](NC(=O)[C@@H](CO)NC(=O)[C@H](N)CCCNC(=N)N)C(=O)N[C@@H](Cc3ccc(F)cc3)C(=O)N[C@@H](CCCNC(=N)N)C(=O)N[C@@H](CC(C)C)C(=O)N3CCC[C@H]3C(=O)N2)C(=O)CCSC[C@@H](C(=O)N[C@@H](CCCNC(=N)N)C(N)=O)NC(=O)[C@H](CCCNC(=N)N)NC1=O` [JS34] (H-[dR][dS]C[Phe(4-F)]RLPCHQLRCR-NH2; linker 3-8-13 via TATA; N-terminus and C-terminus assumed) stands 38.7 h; under `CC(C)C[C@@H]1NC(=O)[C@H](CCC(N)=O)NC(=O)[C@H](CCCNC(=N)N)NC(=O)[C@@H]2CSCCC(=O)N3CN(CN(C3)C(=O)CCSC[C@H](NC(=O)[C@@H](CO)NC(=O)[C@H](N)CCCNC(=N)N)C(=O)N[C@@H](Cc3ccc(F)cc3)C(=O)N[C@@H](CCCNC(=N)N)C(=O)N[C@@H](CC(C)C)C(=O)N3CCC[C@H]3C(=O)N2)C(=O)CCSC[C@@H](C(=O)N[C@@H](CCCNC(=N)N)C(N)=O)NC(=O)C[C@H](CCCNC(=N)N)NC1=O` [JS35] (H-[dR][dS]C[Phe(4-F)]RLPCRQL[β3hR]CR-NH2; linker 3-8-13 via TATA; N-terminus and C-terminus assumed), 21.9 h.

Consider `N=C(N)NCCCC(NC(=O)C(Cc1ccccc1)NC(=O)C1CCCN1)C(=O)CCl` [PCK, D-Pro-Phe-Arg chloromethyl ketone, reference compound], for which the concentration for half-maximal inhibition (IC50) with FXIIa was 180 nM. As to `CC(C)C[C@@H]1NC(=O)[C@H](CCC(N)=O)NC(=O)[C@H](CCCNC(=N)N)NC(=O)[C@@H]2CSCCC(=O)N3CN(CN(C3)C(=O)CCSC[C@H](NC(=O)[C@@H](N)CCCNC(=N)N)C(=O)N[C@@H](Cc3ccccc3)C(=O)N[C@@H](CCCNC(=N)N)C(=O)N[C@@H](CC(C)C)C(=O)N3CCC[C@H]3C(=O)N2)C(=O)CCSC[C@@H](C(=O)N[C@@H](CCCNC(=N)N)C(N)=O)NC(=O)C[C@H](CCCNC(=N)N)NC1=O` [compound 100], on human β-FXIIa [1], affinity was put at a Ki of 5.4 ± 0.1 nM and the “improvement of Ki / binding” value was found to be 4 fold. Take `CC(C)C[C@@H]1NC(=O)[C@H](CCC(N)=O)NC(=O)[C@H](CCCNC(=N)N)NC(=O)[C@@H]2CSCCC(=O)N3CN(CN(C3)C(=O)CCSC[C@H](NC(=O)[C@@H](N)CCCNC(=N)N)C(=O)N[C@@H](Cc3ccccc3)C(=O)N[C@@H](CCCNC(=N)N)C(=O)N[C@@H](CC(C)C)C(=O)N3CCC[C@H]3C(=O)N2)C(=O)CCSCC[C@@H](C(=O)N[C@@H](CCCNC(=N)N)C(N)=O)NC(=O)C[C@H](CCCNC(=N)N)NC1=O` [compound 107]: the inhibition constant Ki at human β-FXIIa [1] was found to be 18 ± 2 nM. Regarding `CC(C)C[C@@H]1NC(=O)[C@H](CCC(N)=O)NC(=O)[C@H](CCCNC(=N)N)NC(=O)[C@@H]2CSCCC(=O)N3CN(CN(C3)C(=O)CCSC[C@H](NC(=O)[C@@H](N)CCCNC(=N)N)C(=O)N[C@@H](Cc3ccccc3)C(=O)N[C@@H](CCCCN)C(=O)N[C@@H](CC(C)C)C(=O)N3CCC[C@H]3C(=O)N2)C(=O)CCSC[C@@H](C(=O)N[C@@H](CCCNC(=N)N)C(=O)N[C@@H](Cc2c[nH]c3ccccc23)C(N)=O)NC(=O)[C@H](CCCNC(=N)N)NC1=O` [peptide 10] (H-RCFKLPCRQLRCRW-NH2; linker 2-7-12 via TATA), at human β-FXIIa [2] (relative to parent peptide (peptide 2 or peptide 1)), the “reduction of inhibitory activity / affinity” value is listed as 10 fold. Consider `Cc1cccc(C[C@@H]2NC(=O)[C@@H](NC(=O)[C@@H](N)CCCNC(=N)N)CSCCC(=O)N3CN4CN(C3)C(=O)CCSC[C@H](NC(=O)[C@@H]3CCCN3C(=O)[C@H](CC(C)C)NC(=O)[C@H](CCCNC(=N)N)NC2=O)C(=O)N[C@@H](CCCNC(=N)N)C(=O)N[C@@H](CCC(N)=O)C(=O)N[C@@H](CC(C)C)C(=O)N[C@@H](CCCNC(=N)N)C(=O)N[C@H](C(=O)N[C@@H](CCCNC(=N)N)C(=O)N[C@@H](Cc2c[nH]c3ccccc23)C(N)=O)CSCCC4=O)c1` [peptide 52], for which the “improvement of inhibitory activity / affinity” value at human β-FXIIa [2] is reported as 2.5 fold.

With `CC(C)C[C@@H]1NC(=O)[C@H](CCC(N)=O)NC(=O)[C@H](CCCNC(=N)N)NC(=O)[C@@H]2CSCCC(=O)N3CN(CN(C3)C(=O)CCSC[C@H](NC(=O)[C@@H](N)CCCNC(=N)N)C(=O)N[C@@H](Cc3cccnc3)C(=O)N[C@@H](CCCNC(=N)N)C(=O)N[C@@H](CC(C)C)C(=O)N3CCC[C@H]3C(=O)N2)C(=O)CCSC[C@@H](C(=O)N[C@@H](CCCNC(=N)N)C(=O)N[C@@H](Cc2c[nH]c3ccccc23)C(N)=O)NC(=O)[C@H](CCCNC(=N)N)NC1=O` [peptide 54], the “improvement of inhibitory activity / affinity” value on human β-FXIIa [2] is “around 3 fold”. On the same count and under the same terms, under `CC(C)C[C@@H]1NC(=O)[C@H](CCC(N)=O)NC(=O)[C@H](CCCNC(=N)N)NC(=O)[C@@H]2CSCCC(=O)N3CN(CN(C3)C(=O)CCSC[C@H](NC(=O)[C@@H](N)CCCNC(=N)N)C(=O)N[C@@H](Cc3ccccc3F)C(=O)N[C@@H](CCCNC(=N)N)C(=O)N[C@@H](CC(C)C)C(=O)N3CCC[C@H]3C(=O)N2)C(=O)CCSC[C@@H](C(=O)N[C@@H](CCCNC(=N)N)C(=O)N[C@@H](Cc2c[nH]c3ccccc23)C(N)=O)NC(=O)[C@H](CCCNC(=N)N)NC1=O` [peptide 56] stands 2 fold.

Take `CC(C)C[C@@H]1NC(=O)[C@H](CCC(N)=O)NC(=O)[C@H](CCCNC(=N)N)NC(=O)[C@@H]2CSCCC(=O)N3CN(CN(C3)C(=O)CCSC[C@H](NC(=O)[C@@H](N)CCCNC(=N)N)C(=O)N[C@@H](Cc3ccc(F)cc3)C(=O)N[C@@H](CCCNC(=N)N)C(=O)N[C@@H](CC(C)C)C(=O)N3CCC[C@H]3C(=O)N2)C(=O)CCSC[C@@H](C(=O)N[C@@H](CCCNC(=N)N)C(N)=O)NC(=O)[C@H](CCCNC(=N)N)NC1=O` [peptide 61]: the “aPTT prolongation compared with peptide 1” value in series [3] is reported as “significantly increased aPTT prolongation”. For the compound `CC(C)C[C@@H]1NC(=O)[C@H](CCC(N)=O)NC(=O)[C@H](CCCNC(=N)N)NC(=O)[C@@H]2CSCCC(=O)N3CN(CN(C3)C(=O)CCSC[C@H](N)C(=O)N[C@@H](Cc3ccccc3)C(=O)N[C@@H](CCCNC(=N)N)C(=O)N[C@@H](CC(C)C)C(=O)N3CCC[C@H]3C(=O)N2)C(=O)CCSC[C@@H](C(=O)N[C@@H](CCCNC(=N)N)C(N)=O)NC(=O)[C@H](CCCNC(=N)N)NC1=O` [peptide 62] (H-CFRLPCRQLRCR-NH2; linker 1-6-11 via TATA), the inhibition constant (Ki) on human β-FXIIa [2] was found to be 932 ± 80 nM. The compound `CC(C)C[C@@H]1NC(=O)[C@H](CCC(N)=O)NC(=O)[C@H](CCCNC(=N)N)NC(=O)[C@@H]2CSCCC(=O)N3CN(CN(C3)C(=O)CCSC[C@H](NC(=O)[C@@H](N)CCNC(=N)N)C(=O)N[C@@H](Cc3ccccc3)C(=O)N[C@@H](CCCNC(=N)N)C(=O)N[C@@H](CC(C)C)C(=O)N3CCC[C@H]3C(=O)N2)C(=O)CCSC[C@@H](C(=O)N[C@@H](CCCNC(=N)N)C(N)=O)NC(=O)[C@H](CCCNC(=N)N)NC1=O` [peptide 71] gave a half-life at 10 μM in the series “in vitro” of 21.7 ± 2.5 h. Also, at human β-FXIIa [2], the inhibition constant Ki was 18.5 to 43.1 nM.

For the compound `CC(C)C[C@@H]1NC(=O)[C@H](CCC(N)=O)NC(=O)[C@H](CCCNC(=N)N)NC(=O)[C@@H]2CSCCC(=O)N3CN(CN(C3)C(=O)CCSC[C@H](NC(=O)[C@@H](N)CCCNC(=N)N)C(=O)N[C@@H](Cc3ccccc3)C(=O)N[C@@H](CCCNC(=N)N)C(=O)N[C@@H](CC(C)C)C(=O)N3CCC[C@H]3C(=O)N2)C(=O)CCSCC[C@@H](C(=O)N[C@@H](CCCNC(=N)N)C(N)=O)NC(=O)[C@H](CCCNC(=N)N)NC1=O` [peptide 105], the “improvement of Ki / binding” value on human β-FXIIa [1] was determined as 1.3 fold.

(Values after patent US20180118786A1, “NOVEL lNHIBITORS OF THE ENZYME ACTIVATED FACTOR XII (FXIIA)” (ECOLE POLYTECHNIQUE FEDERALE DE LAUSANNE (EPFL), priority 2015, published 2018).)
